Laboratory results: ChEMBL document CHEMBL4043063, “Anti-tuberculosis activity and structure-activity relationships of oxygenated tricyclic carbazole alkaloids and synthetic derivatives” (Bioorg Med Chem, 2017)
Converted amounts (≈) assume the structure as drawn.

Columns and labels:
[1] = tested on: Mycobacterium tuberculosis; experiment: Antitubercular activity against Mycobacterium tuberculosis H37Rv by microplate alamar blue assay; assay type: functional
Vero = experiment: Cytotoxicity against African green monkey Vero cells assessed as reduction in cell viability after 72 hrs by tetrazolium dye assay; assay type: cell-based; details: Chlorocebus sabaeus
[2] = Selectivity index, ratio of IC50 for African green monkey Vero cells to MIC90 for Mycobacterium tuberculosis H37Rv; assay type: toxicity; details: read-out: Selectivity Index

Row | SMILES | MIC90 [1] [µM] | IC50 (Vero) [µM] | selectivity ratio [2]
1 | COc1ccc2[nH]c3cc(OC)c(C=O)cc3c2c1 [GLYCOZOLIDAL] | > 50 |  | 
2 | COc1cccc2c1[nH]c1cc(O)c(C)cc12 | > 50 |  | 
3 | O=C(O)c1cc2c(cc1O)[nH]c1ccc(O)cc12 | > 50 |  | 
4 | C=CC(C)(C)c1ccc2[nH]c3ccccc3c2c1 | 11 (≈ 2.59 µg/mL) | > 50 | > 4.5
5 | COC(=O)c1cc(OC)c2[nH]c3ccc(OC)cc3c2c1 | 46.7 (≈ 13.3 µg/mL) |  | 
6 | COc1ccc2c([nH]c3cc(O)c(C=O)cc32)c1C=O | 2.8 (≈ 0.754 µg/mL) | 47.1 | 16.8
7 | COC(=O)c1cc2c(cc1O)[nH]c1ccccc12 [MUKONIDINE] | 23.3 (≈ 5.62 µg/mL) |  | 
8 | COC1=C(C)C(=O)c2[nH]c3ccccc3c2C1=O [3-METHOXY-2-METHYLCARBAZOLE-1,4-QUINONE] | 4 (≈ 0.965 µg/mL) | > 50 | > 12.5
9 | Cc1cc2c(cc1O)[nH]c1ccccc12 | 41.5 (≈ 8.19 µg/mL) |  | 
10 | COC(=O)c1cc2c(cc1OC)[nH]c1ccc(OC)cc12 | 24.4 (≈ 6.96 µg/mL) |  | 
11 | C#CC(C)(C)Oc1ccc2c(c1)[nH]c1c(OS(=O)(=O)c3ccc(C)cc3)cc(C)cc12 | 20.8 (≈ 9.02 µg/mL) |  | 
12 | O=Cc1cc2c(cc1O)[nH]c1c(O)cccc12 | 3.7 (≈ 0.841 µg/mL) | > 50 | > 13
13 | CC(C)=CCc1c(O)c(C)cc2c1[nH]c1ccccc12 | 11.1 (≈ 2.95 µg/mL) | > 50 | > 4.5
14 | COc1ccc2c([nH]c3c(O)cc(C)cc32)c1CC=C(C)C | 23.1 (≈ 6.82 µg/mL) |  | 
15 | CO[C@H]1/C=C/O[C@@]2(C)Oc3c(C)c(O)c4c(O)c(c(/C=N/N5CCN(C)CC5)c(O)c4c3C2=O)NC(=O)/C(C)=C\C=C\[C@H](C)[C@H](O)[C@@H](C)[C@@H](O)[C@@H](C)[C@H](OC(C)=O)[C@@H]1C [RIFAMPIN] | 0.02 (≈ 0.0165 µg/mL) | > 50 | > 2500
16 | COc1ccc2[nH]c3c(O)cc(C=O)cc3c2c1 | 6.9 (≈ 1.66 µg/mL) | > 50 | > 7.2
17 | COc1ccc2c([nH]c3cc(O)c(C)cc32)c1CC=C(C)C | 11.9 (≈ 3.52 µg/mL) | > 50 | > 4.2
18 | COc1ccc2c(c1)[nH]c1c(Cc3ccccc3)c(O)c(C=O)cc12 | 14.4 (≈ 4.77 µg/mL) | 74.1 | 5.1
19 | COc1cc2[nH]c3c(C=O)c(OC)ccc3c2cc1C | > 50 |  | 
20 | CC(C)=CCC/C(C)=C/Cc1c(O)ccc2c1[nH]c1c(OS(=O)(=O)c3ccc(C)cc3)cc(C)cc12 | 20.5 (≈ 10.3 µg/mL) |  | 
21 | COc1ccc2c([nH]c3cc(O)c(C)cc32)c1C=O | > 50 |  | 
22 | COC(=O)c1cc2c(cc1O)[nH]c1ccc(O)cc12 | 29.1 (≈ 7.49 µg/mL) |  | 
23 | COc1ccc2[nH]c3c(OC)cc(C)cc3c2c1 | 45.1 (≈ 10.9 µg/mL) |  | 
24 | CC(C)=CCc1c(O)c(C=O)cc2c1[nH]c1ccccc12 [HEPTAPHYLLINE] | > 50 |  | 
25 | CC(C)=CCc1c(O)ccc2c1[nH]c1c(OS(=O)(=O)c3ccc(C)cc3)cc(C)cc12 | 19.4 (≈ 8.45 µg/mL) |  | 
26 | Cc1ccc(S(=O)(=O)Oc2cc(C)cc3c2[nH]c2cc(O)ccc23)cc1 | 19.7 (≈ 7.24 µg/mL) |  | 

Row | SMILES | MIC90 [1] [µM] | IC50 (Vero) [µM] | selectivity ratio [2]
27 | COc1ccc2c(c1)[nH]c1cc(O)c(C=O)cc12 | 24.3 (≈ 5.86 µg/mL) |  | 
28 | COC(=O)c1cc2c([nH]c3ccccc32)c(-c2cn(S(=O)(=O)c3ccccc3)c3ccccc23)c1O | 2.9 (≈ 1.44 µg/mL) | > 50 | > 17.2
29 | COc1cc2[nH]c3ccccc3c2cc1C=O [GLYCOSININE] | 39.6 (≈ 8.92 µg/mL) |  | 
30 | COc1ccc2[nH]c3cc(OC)c(C)cc3c2c1 [GLYCOZOLIDINE] | > 50 |  | 
31 | CC(C)=CCc1c(O)ccc2c1[nH]c1cc(O)c(C)cc12 | 29.4 (≈ 8.27 µg/mL) |  | 
32 | COc1ccc2c([nH]c3c(OC)cc(C)cc32)c1OC | 46.9 (≈ 12.7 µg/mL) |  | 
33 | O=C(O)c1cc2c([nH]c3ccccc32)c(-c2c[nH]c3ccccc23)c1O | > 50 |  | 
34 | CC(C)=CC(=O)Oc1ccc2c(c1)[nH]c1c(OS(=O)(=O)c3ccc(C)cc3)cc(C)cc12 | 6.2 (≈ 2.79 µg/mL) | > 50 | > 8.1
35 | CC(C)=CCc1ccc2[nH]c3ccccc3c2c1 | 22.6 (≈ 5.32 µg/mL) |  | 
36 | CCCCCCCc1c(C)c(OC)c(OC)c2c1[nH]c1ccccc12 | 6.2 (≈ 2.1 µg/mL) | > 50 | > 8.1
37 | COc1ccc2c(c1)[nH]c1cc(O)c(C)cc12 | > 50 |  | 
38 | Cc1cc2c(cc1OCc1ccccc1)[nH]c1ccccc12 | > 50 |  | 
39 | Cc1cc2c(cc1OCc1ccccc1)[nH]c1c(O)cccc12 | 11.8 (≈ 3.58 µg/mL) | 33.7 | 2.9
40 | COc1ccc2[nH]c3c(OC)cc(C=O)cc3c2c1 | > 50 |  | 
41 | COC(=O)c1cc2c([nH]c3ccccc32)c(I)c1O | 24.6 (≈ 9.03 µg/mL) |  | 
42 | COc1c(C)c(C[C@@H](C)O)c2[nH]c3ccc(CC=C(C)C)cc3c2c1O [(R)-(-)-NEOCARAZOSTATIN B] | 34.5 (≈ 12.2 µg/mL) |  | 
43 | COc1cccc2c1[nH]c1cc(O)c(C=O)cc12 | 29.3 (≈ 7.07 µg/mL) |  | 
44 | COc1ccc2c(c1)[nH]c1c(CC=C(C)C)c(O)c(C=O)cc12 | 20.6 (≈ 6.37 µg/mL) |  | 
45 | COc1cc2[nH]c3cc(O)ccc3c2cc1C=O | 36.7 (≈ 8.85 µg/mL) |  | 
46 | CC(C)=CCC/C(C)=C/Cc1c(O)c(C=O)cc2c1[nH]c1ccccc12 | 24.1 (≈ 8.37 µg/mL) |  | 
47 | COC(=O)c1cc2c(cc1OC)[nH]c1ccccc12 [CLAUSINE L] | > 50 |  | 
48 | COC(=O)c1cc2c(cc1O)[nH]c1cc(OC)ccc12 | 47.8 (≈ 13 µg/mL) |  | 
49 | COc1ccc2[nH]c3cc(O)c(C)cc3c2c1 | 1.5 (≈ 0.341 µg/mL) | > 50 | > 33
50 | COc1cccc2[nH]c3cc(OCc4ccccc4)c(C)cc3c12 | 9.3 (≈ 2.95 µg/mL) | > 50 | > 5.4
51 | NNC(=O)c1ccncc1 [ISONIAZID] | 0.24 (≈ 0.0329 µg/mL) | > 50 | > 208
52 | COc1cc2[nH]c3ccccc3c2cc1C(=O)O | > 50 |  | 
